Measurements published in PubChem BioAssay AID248 (DTP/NCI, 2004).
Values joined by “and” are separate entries in the source; they are usually repeats but may differ in a detail not shown here. Equal entries are not always repeated. Toxic doses and inconclusive results are not listed. Rule as the data show it: active = T/C of 150% or more; inactive = T/C below 125%.

Tested on: L1210 leukemia ip in BDF1 mice, survival T/C
Assay: NCI In Vivo Anticancer Drug Screen. Data for tumor model L1210 Leukemia (intraperitoneal) in B6D2F1 (BDF1) mice
Conditions: endpoint: mean survival time, higher = longer survival
Method in brief: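 Value reflects the ratio of survival in compound-treated mice to survival in vehicle-treated controls, with both groups carrying the same transplanted tumor.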

[1] = dose: 50.0 mg/kg/injection, schedule: Q01DX001 (ip), vehicle: Klucel (hydroxypropylcellulose) (HPC)
[2] = dose: 25.0 mg/kg/injection, schedule: Q01DX009 (ip), vehicle: saline with Tween-80
[3] = dose: 50.0 mg/kg/injection, schedule: Q01DX009 (ip), vehicle: saline with Tween-80
[4] = dose: 100.0 mg/kg/injection, schedule: Q01DX009 (ip), vehicle: saline with Tween-80
[5] = dose: 100.0 mg/kg/injection, schedule: Q04DX003 (ip), vehicle: saline with Tween-80
[6] = dose: 200.0 mg/kg/injection, schedule: Q04DX003 (ip), vehicle: saline with Tween-80
[7] = dose: 100.0 mg/kg/injection, schedule: Q01DX001 (ip), vehicle: Klucel (hydroxypropylcellulose) (HPC)
[8] = dose: 200.0 mg/kg/injection, schedule: Q01DX001 (ip), vehicle: Klucel (hydroxypropylcellulose) (HPC)
[9] = dose: 100.0 mg/kg/injection, schedule: Q04DX003 (ip), vehicle: Klucel (hydroxypropylcellulose) (HPC)
[10] = dose: 200.0 mg/kg/injection, schedule: Q04DX003 (ip), vehicle: Klucel (hydroxypropylcellulose) (HPC)
[11] = dose: 400.0 mg/kg/injection, schedule: Q04DX003 (ip), vehicle: Klucel (hydroxypropylcellulose) (HPC)
[12] = dose: 200.0 mg/kg/injection, schedule: Q01DX009 (ip), vehicle: saline with Tween-80
[13] = dose: 400.0 mg/kg/injection, schedule: Q01DX009 (ip), vehicle: saline with Tween-80
[14] = dose: 400.0 mg/kg/injection, schedule: Q04DX003 (ip), vehicle: saline with Tween-80
[15] = dose: 100.0 mg/kg/injection, schedule: Q01DX009 (ip), vehicle: Klucel (hydroxypropylcellulose) (HPC)
[16] = dose: 200.0 mg/kg/injection, schedule: Q01DX009 (ip), vehicle: Klucel (hydroxypropylcellulose) (HPC)
[17] = dose: 400.0 mg/kg/injection, schedule: Q01DX009 (ip), vehicle: Klucel (hydroxypropylcellulose) (HPC)
[18] = dose: 400.0 mg/kg/injection, schedule: Q01DX001 (ip), vehicle: Klucel (hydroxypropylcellulose) (HPC)
[19] = dose: 50.0 mg/kg/injection, schedule: Q01DX009 (ip), vehicle: saline
[20] = dose: 100.0 mg/kg/injection, schedule: Q01DX009 (ip), vehicle: saline
[21] = dose: 200.0 mg/kg/injection, schedule: Q01DX009 (ip), vehicle: saline

Measured: T/C

Clc1nc(I)c(Cl)c(C(Cl)(Cl)Cl)n1
inactive: dose: 12.5 mg/kg/injection, schedule: Q01DX001 (ip), vehicle: Klucel (hydroxypropylcellulose) (HPC) 89 % of control | dose: 25.0 mg/kg/injection, schedule: Q01DX001 (ip), vehicle: Klucel (hydroxypropylcellulose) (HPC) 93 % of control | [1] 89 % of control

O=C1C2CCC(C2)C1C(O)(C(F)(F)F)C(F)(F)F (configuration not stated)
inactive: [2] 101 % of control | [3] 100 % of control | dose: 50.0 mg/kg/injection, schedule: Q04DX003 (ip), vehicle: saline with Tween-80 101 % of control | [4] 91 % of control | [5] 98 % of control | [6] 91 % of control

Cn1nnc(CCCl)n1
inactive: dose: 100.0 mg/kg/injection, schedule: Q01DX001 (ip), vehicle: saline 110 % of control | dose: 200.0 mg/kg/injection, schedule: Q01DX001 (ip), vehicle: saline 91 % of control | dose: 400.0 mg/kg/injection, schedule: Q01DX001 (ip), vehicle: saline 95 % of control

O=Nc1ccc(O)c(Cl)c1
inactive: [7] 95 % of control | [8] 98 % of control

O=c1oc2ccccc2c(O)c1C(c1ccc(C(c2c(O)c3ccccc3oc2=O)c2c(O)c3ccccc3oc2=O)cc1)c1c(O)c2ccccc2oc1=O
inactive: [9] 105 % of control | [10] 99 % of control | [11] 93 % of control

CCCCc1c(N)nc(=S)[nH]c1C(=O)O
inactive: dose: 75.0 mg/kg/injection, schedule: Q01DX009 (ip), vehicle: Klucel (hydroxypropylcellulose) (HPC) 98 % of control | [9] 95 % of control | dose: 150.0 mg/kg/injection, schedule: Q01DX009 (ip), vehicle: Klucel (hydroxypropylcellulose) (HPC) 106 % of control | [10] 98 % of control and 91 % of control | dose: 300.0 mg/kg/injection, schedule: Q01DX009 (ip), vehicle: Klucel (hydroxypropylcellulose) (HPC) 108 % of control | [11] 96 % of control

CCN(C(=O)CC(C)=O)c1ccccc1
inactive: [4] 91 % of control | [5] 98 % of control | [12] 93 % of control | [6] 98 % of control | [13] 94 % of control | [14] 98 % of control

COc1ccc(-c2c(N)nc(=S)[nH]c2C(=O)O)cc1
inactive: [15] 97 % of control | [9] 100 % of control | [16] 94 % of control | [10] 101 % of control | [17] 103 % of control | [11] 106 % of control

CCC(C)[P+](c1ccccc1)(c1ccccc1)c1ccccc1 (configuration not stated)
inactive: dose: 3.75 mg/kg/injection, schedule: Q01DX001 (ip), vehicle: carboxymethylcellulose (CMC) 118 % of control | dose: 7.0 mg/kg/injection, schedule: Q01DX015 (ip), vehicle: carboxymethylcellulose (CMC) 118 % of control | dose: 7.5 mg/kg/injection, schedule: Q01DX001 (ip), vehicle: carboxymethylcellulose (CMC) 118 % of control | dose: 12.5 mg/kg/injection, schedule: Q04DX002 (ip), vehicle: Klucel (hydroxypropylcellulose) (HPC) 109 % of control | dose: 14.0 mg/kg/injection, schedule: Q01DX015 (ip), vehicle: carboxymethylcellulose (CMC) 120 % of control | dose: 15.0 mg/kg/injection, schedule: Q01DX001 (ip), vehicle: carboxymethylcellulose (CMC) 119 % of control | dose: 25.0 mg/kg/injection, schedule: Q04DX002 (ip), vehicle: Klucel (hydroxypropylcellulose) (HPC) 91 % of control

CNC(=O)Nc1cccc(C(F)(F)F)c1
inactive: [15] 103 % of control | [9] 102 % of control | [16] 100 % of control | [10] 102 % of control | [11] 123 % of control

COC(=O)/C=C\n1cnc2ccccc21
inactive: dose: 75.0 mg/kg/injection, schedule: Q01DX001 (ip), vehicle: saline 109 % of control | dose: 150.0 mg/kg/injection, schedule: Q01DX001 (ip), vehicle: saline 112 % of control | dose: 300.0 mg/kg/injection, schedule: Q01DX001 (ip), vehicle: saline 107 % of control

O=C(Nc1ccccc1C(F)(F)F)OCC1CCCO1 (configuration not stated)
inactive: dose: 100.0 mg/kg/injection, schedule: Q01DX009 (ip), vehicle: gum acacia 109 % of control | dose: 200.0 mg/kg/injection, schedule: Q01DX009 (ip), vehicle: gum acacia 95 % of control | dose: 400.0 mg/kg/injection, schedule: Q01DX009 (ip), vehicle: gum acacia 100 % of control

CC/C(=C(/Cl)c1ccccc1)c1ccccc1
inactive: [7] 98 % of control | [8] 102 % of control | [18] 100 % of control

O=c1[nH]c(-c2ccccc2)c(CO)c(=O)[nH]1
inactive: dose: 75.0 mg/kg/injection, schedule: Q04DX003 (ip), vehicle: Klucel (hydroxypropylcellulose) (HPC) 103 % of control | [7] 96 % of control | dose: 150.0 mg/kg/injection, schedule: Q04DX003 (ip), vehicle: Klucel (hydroxypropylcellulose) (HPC) 97 % of control | [8] 102 % of control | dose: 300.0 mg/kg/injection, schedule: Q04DX003 (ip), vehicle: Klucel (hydroxypropylcellulose) (HPC) 105 % of control | [18] 109 % of control

NC(=O)NOCC1NC(=O)C(CONC(N)=O)NC1=O (configuration not stated)
inactive: [15] 93 % of control | [9] 104 % of control | [16] 102 % of control | [10] 89 % of control | [17] 96 % of control | [11] 95 % of control

COc1ccccc1-n1c(=O)c(N=Nc2ccc(Cl)cc2)c(O)n(-c2ccccc2Cl)c1=S
inactive: [1] 94 % of control | [7] 101 % of control | [8] 92 % of control

CCC(=O)Nc1cccc(OC(=O)NCCCl)c1
inactive: [4] 96 % of control | [12] 87 % of control | [13] 86 % of control

O=C(O)/C=C/c1cc2c(cc1[N+](=O)[O-])OCO2
inactive: [15] 98 % of control | [9] 86 % of control | [16] 93 % of control | [10] 95 % of control | [17] 88 % of control | [11] 100 % of control

C=CCC(=O)O
inactive: dose: 83.0 mg/kg/injection, schedule: Q01DX Z (ip), vehicle: saline 96 % of control | dose: 125.0 mg/kg/injection, schedule: Q01DX Z (ip), vehicle: saline 90 % of control

CC(N)Cc1ccc(O)cc1 (configuration not stated)
inactive: dose: 25.0 mg/kg/injection, schedule: Q01DX009 (ip), vehicle: saline 108 % of control | dose: 25.0 mg/kg/injection, schedule: Q04DX003 (ip), vehicle: saline 100 % of control | [19] 103 % of control | dose: 50.0 mg/kg/injection, schedule: Q04DX003 (ip), vehicle: saline 94 % of control | [20] 101 % of control | dose: 100.0 mg/kg/injection, schedule: Q04DX003 (ip), vehicle: saline 96 % of control | [21] 93 % of control | dose: 200.0 mg/kg/injection, schedule: Q04DX003 (ip), vehicle: saline 100 % of control | dose: 400.0 mg/kg/injection, schedule: Q04DX003 (ip), vehicle: saline 94 % of control

CC(=O)Nc1ccc(S(=O)(=O)OCCC#N)cc1
inactive: [5] 99 % of control | [6] 99 % of control | [14] 90 % of control

CC(=O)CCC(=O)OCCCl
inactive: [19] 102 % of control | [20] 101 % of control | [21] 101 % of control

Cc1ccc(-n2c(=S)[nH]c3ccccc3c2=O)cc1
inactive: [2] 92 % of control | [3] 90 % of control | [4] 87 % of control

COc1cc([N+](=O)[O-])ccc1NC(=O)N(C)Cc1ccccc1
inactive: dose: 50.0 mg/kg/injection, schedule: Q01DX001 (ip), vehicle: saline with Tween-80 95 % of control | dose: 100.0 mg/kg/injection, schedule: Q01DX001 (ip), vehicle: saline with Tween-80 93 % of control | [4] 96 % of control | dose: 100.0 mg/kg/injection, schedule: Q04DX002 (ip), vehicle: saline with Tween-80 92 % of control and 93 % of control | [5] 116 % of control | [12] 98 % of control | dose: 200.0 mg/kg/injection, schedule: Q04DX002 (ip), vehicle: saline with Tween-80 94 % of control and 102 % of control | [6] 98 % of control | dose: 400.0 mg/kg/injection, schedule: Q01DX001 (ip), vehicle: saline with Tween-80 87 % of control and 88 % of control | [13] 94 % of control | dose: 400.0 mg/kg/injection, schedule: Q04DX002 (ip), vehicle: saline with Tween-80 93 % of control and 101 % of control | [14] 101 % of control
